Test results: article PMC6934184, “Selective DNA-PKcs inhibition extends the therapeutic index of localized radiotherapy and chemotherapy” (The Journal of Clinical Investigation, 2019)

Biological target: T1, MARK4 (Homo sapiens, UniProt Q96L34)
T1 construct: purchased Thermo Fisher Scientific (Life Technologies) SelectScreen
Experiment: SelectScreen Z'LYTE
Assay type: biochemical
Method in brief: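 Percent values come from Thermo SelectScreen profiling of NU5455, combining activity and binding assays. CSF1R was run in Z'LYTE format at Km app ATP, and CAMK1 in Adapta format with ATP listed at 10.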

T1 sequence (Q96L34 whole entry): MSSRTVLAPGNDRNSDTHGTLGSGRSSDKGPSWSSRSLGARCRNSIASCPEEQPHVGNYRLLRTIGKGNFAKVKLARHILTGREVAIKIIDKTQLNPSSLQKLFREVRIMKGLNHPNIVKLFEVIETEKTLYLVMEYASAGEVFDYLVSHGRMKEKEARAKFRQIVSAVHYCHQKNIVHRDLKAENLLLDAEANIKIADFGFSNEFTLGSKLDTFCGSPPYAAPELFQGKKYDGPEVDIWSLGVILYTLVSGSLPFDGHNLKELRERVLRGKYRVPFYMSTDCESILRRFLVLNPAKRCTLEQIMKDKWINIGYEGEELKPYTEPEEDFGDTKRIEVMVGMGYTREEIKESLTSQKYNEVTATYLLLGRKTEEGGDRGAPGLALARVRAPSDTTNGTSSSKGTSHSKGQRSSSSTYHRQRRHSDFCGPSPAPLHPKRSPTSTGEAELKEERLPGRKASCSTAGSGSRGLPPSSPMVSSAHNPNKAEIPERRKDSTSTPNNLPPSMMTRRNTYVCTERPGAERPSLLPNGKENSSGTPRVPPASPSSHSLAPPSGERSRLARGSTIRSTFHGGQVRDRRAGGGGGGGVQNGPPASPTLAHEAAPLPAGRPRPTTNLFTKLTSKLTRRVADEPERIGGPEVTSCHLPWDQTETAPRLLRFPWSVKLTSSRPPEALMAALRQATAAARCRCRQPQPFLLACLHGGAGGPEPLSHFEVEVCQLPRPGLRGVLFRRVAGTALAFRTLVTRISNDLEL

CN(C(=O)CN1CCOCC1)c1ccc2sc3c(-c4cccc5c(=O)cc(N6CC7CCC(C6)O7)oc45)cccc3c2c1 [NU5455] was tested. Which inhibition at 1 µM did it give?
Its inhibition at 1 µM is -2%.
